Structures are written as SMILES.

The source of these data is patent US11344554B2, “Animal and human anti-malarial agents” (Celgene Corporation, priority 2016, dated 2022).

The subject of the assay is Plasmodium falciparum. Nature of the assay: Plasmodium falciparum in vitro [3H]-hypoxanthine parasite growth inhibition assay. The class given is cell-based. As to conditions: Erythrocyte, P. falciparum asexual blood stage parasites in human erythrocytes, [3H]-hypoxanthine uptake, read-out: Act Class (IC50 activity level).
With `FC(F)(F)c1cccc(Nc2nc3cnc(NC4CCOCC4)nc3n2C2CCNCC2)c1` [Cpd 46, 9-(piperidin-4-yl)-N2-(tetrahydro-2H-pyran-4-yl)-N8-(3-(trifluoromethyl)phenyl)-9H-purine-2,8-diamine], the half-inhibitory concentration (IC50) was 500 to 1200 nM. The value for `CC(C)(C)Nc1ncc2nc(Nc3cccc(Cl)c3F)n(C3CCNCC3)c2n1` [Cpd 47, N2-tert-butyl-N8-(3-chloro-2-fluorophenyl)-9-(piperidin-4-yl)-9H-purine-2,8-diamine] was 500 to 1200 nM; that for `CC(C)(C)Nc1ncc2nc(Nc3cc(Cl)cc(OC(F)(F)F)c3)n(C3CCNCC3)c2n1` [Cpd 48, N2-tert-butyl-N8-(3-chloro-5-(trifluoromethoxy)phenyl)-9-(piperidin-4-yl)-9H-purine-2,8-diamine] was under 100 nM.

In the case of `CC(C)(C)Nc1ncc2nc(Nc3cc(C(F)(F)F)cc(C(F)(F)F)c3)n(C3CCNCC3)c2n1` [Cpd 49, N8-(3,5-bis(trifluoromethyl)phenyl)-N2-tert-butyl-9-(piperidin-4-yl)-9H-purine-2,8-diamine], the IC50 was under 100 nM. The value for `CC(C)(C)Nc1ncc2nc(Nc3cccc(C#N)c3)n(C3CCNCC3)c2n1` [Cpd 50, 3-(2-(tert-butylamino)-9-(piperidin-4-yl)-9H-purin-8-ylamino)benzonitrile] was 200 to 500 nM; that for `FC(F)(F)c1cc(Cl)cc(Nc2nc3cnc(NC4CCOCC4)nc3n2C2CCNCC2)c1` [Cpd 51, N8-(3-chloro-5-(trifluoromethyl)phenyl)-9-(piperidin-4-yl)-N2-(tetrahydro-2H-pyran-4-yl)-9H-purine-2,8-diamine] was 100 to 200 nM.

In the case of `FC(F)(F)c1cc(Cl)cc(Nc2nc3cnc(NC4CCC4)nc3n2C2CCNCC2)c1` [Cpd 52, N8-(3-chloro-5-(trifluoromethyl)phenyl)-N2-cyclobutyl-9-(piperidin-4-yl)-9H-purine-2,8-diamine], the IC50 was under 100 nM. The value for `FC(F)(F)c1cc(Cl)cc(Nc2nc3cnc(NC4CCCC4)nc3n2C2CCNCC2)c1` [Cpd 53, N8-(3-chloro-5-(trifluoromethyl)phenyl)-N2-cyclopentyl-9-(piperidin-4-yl)-9H-purine-2,8-diamine] was under 100 nM.

Turning to `CC1(Nc2ncc3nc(Nc4cc(Cl)cc(C(F)(F)F)c4)n(C4CCNCC4)c3n2)CCOCC1` [Cpd 54, N8-(3-chloro-5-(trifluoromethyl)phenyl)-N2-(4-methyltetrahydro-2H-pyran-4-yl)-9-(piperidin-4-yl)-9H-purine-2,8-diamine], the IC50 is under 100 nM. Regarding `CC1(Nc2ncc3nc(Nc4cccc(OC(F)(F)F)c4)n(C4CCNCC4)c3n2)CCOCC1` [Cpd 55, N2-(4-methyltetrahydro-2H-pyran-4-yl)-9-(piperidin-4-yl)-N8-(3-(trifluoromethoxy)phenyl)-9H-purine-2,8-diamine], the half-maximal inhibitory concentration (IC50) lay within 100 to 200 nM. With `CC1(Nc2ncc3nc(Nc4cc(F)cc(Cl)c4)n(C4CCNCC4)c3n2)CCOCC1` [Cpd 56, N8-(3-chloro-5-fluorophenyl)-N2-(4-methyltetrahydro-2H-pyran-4-yl)-9-(piperidin-4-yl)-9H-purine-2,8-diamine] the figure was under 100 nM; with `CC1(Nc2ncc3nc(Nc4cccc(C(F)F)c4)n(C4CCNCC4)c3n2)CCOCC1` [Cpd 57, N8-(3-(difluoromethyl)phenyl)-N2-(4-methyltetrahydro-2H-pyran-4-yl)-9-(piperidin-4-yl)-9H-purine-2,8-diamine], 500 to 1200 nM.

As for `CC1(Nc2ncc3nc(Nc4cccc(C(F)(F)F)c4)n(CCC4CCNC4)c3n2)CCOCC1` (stereo not drawn) [Cpd 58, N2-(4-methyltetrahydro-2H-pyran-4-yl)-9-(2-(pyrrolidin-3-yl)ethyl)-N8-(3-(trifluoromethyl)phenyl)-9H-purine-2,8-diamine], the half-maximal inhibitory concentration (IC50) was 200 to 500 nM. The value for `CC1(Nc2ncc3nc(Nc4cccc(C(F)(F)F)c4)n(C4CCNCC4)c3n2)CCCC1` [Cpd 59, N2-(1-methylcyclopentyl)-9-(piperidin-4-yl)-N8-(3-(trifluoromethyl)phenyl)-9H-purine-2,8-diamine] was under 100 nM; that for `CC(C)(C)Nc1ncc2nc(Nc3cc(Cl)cc(C(F)(F)F)c3)n(C3CCN(CCN)C3)c2n1` (stereo not drawn) [Cpd 60, 9-(1-(2-aminoethyl)pyrrolidin-3-yl)-N2-tert-butyl-N8-(3-chloro-5-(trifluoromethyl)phenyl)-9H-purine-2,8-diamine] was 200 to 500 nM. `CC1(Nc2ncc3nc(Nc4cc(Cl)cc(Cl)c4)n(C4CCNCC4)c3n2)CCOCC1` [Cpd 61, N8-(3,5-dichlorophenyl)-N2-(4-methyltetrahydro-2H-pyran-4-yl)-9-(piperidin-4-yl)-9H-purine-2,8-diamine]: the concentration for half-maximal inhibition (IC50) is under 100 nM. Regarding `Fc1cc(Cl)cc(Nc2nc3cnc(NC4CC4)nc3n2C2CCNCC2)c1` [Cpd 62, N8-(3-chloro-5-fluorophenyl)-N2-cyclopropyl-9-(piperidin-4-yl)-9H-purine-2,8-diamine], the IC50 is 100 to 200 nM. Regarding `CC(C)Nc1ncc2nc(Nc3cc(F)cc(Cl)c3)n(C3CCNCC3)c2n1` [Cpd 63, N8-(3-chloro-5-fluorophenyl)-N2-isopropyl-9-(piperidin-4-yl)-9H-purine-2,8-diamine], the IC50 was under 100 nM.

Turning to `CC1(Nc2ncc3nc(Nc4cc(F)cc(Cl)c4)n(C4CCNCC4)c3n2)CC1` [Cpd 64, N8-(3-chloro-5-fluorophenyl)-N2-(1-methylcyclopropyl)-9-(piperidin-4-yl)-9H-purine-2,8-diamine], the IC50 is under 100 nM. For `CC(C)Nc1ncc2nc(Nc3ccc(Cl)c(Cl)c3)n(C3CCNCC3)c2n1` [Cpd 65, N8-(3,4-dichlorophenyl)-N2-isopropyl-9-(piperidin-4-yl)-9H-purine-2,8-diamine], the concentration for half-maximal inhibition (IC50) is under 100 nM. With `CC(C)Nc1ncc2nc(Nc3cccc(C(F)(F)F)c3)n(C3CCNCC3)c2n1` [Cpd 66, N2-isopropyl-9-(piperidin-4-yl)-N8-(3-(trifluoromethyl)phenyl)-9H-purine-2,8-diamine] the figure was 100 to 200 nM. With `CC1(Nc2ncc3nc(Nc4cc(Cl)cc(C(F)(F)F)c4)n(C4CCNCC4)c3n2)CCCC1` [Cpd 68, N8-(3-chloro-5-(trifluoromethyl)phenyl)-N2-(1-methylcyclopentyl)-9-(piperidin-4-yl)-9H-purine-2,8-diamine], the IC50 is under 100 nM. The value for `CC1(Nc2ncc3nc(Nc4cc(Cl)cc(C(F)(F)F)c4)n(C4CCNCC4)c3n2)CCC1` [Cpd 69, N8-(3-chloro-5-(trifluoromethyl)phenyl)-N2-(1-methylcyclobutyl)-9-(piperidin-4-yl)-9H-purine-2,8-diamine] was under 100 nM; that for `CC(C)(C)Nc1ncc2nc(Nc3cccc(C(F)(F)F)c3)n(C3CCC4CNCC4C3)c2n1` (stereo not drawn) [Cpd 78, N2-tert-butyl-9-(octahydro-1H-isoindol-5-yl)-N8-(3-(trifluoromethyl)phenyl)-9H-purine-2,8-diamine] was 500 to 1200 nM. As to `CC(C)Nc1ncc2nc(Nc3ccc(Cl)c(C(F)(F)F)c3)n(C3CCNCC3)c2n1` [Cpd 79, N8-(4-chloro-3-(trifluoromethyl)phenyl)-N2-isopropyl-9-(piperidin-4-yl)-9H-purine-2,8-diamine], the IC50 lay in the range of 100 to 200 nM.

Take `FC(F)(F)c1cc(Nc2nc3cnc(NC4CC4)nc3n2C2CCNCC2)ccc1Cl` [Cpd 80, N8-(4-chloro-3-(trifluoromethyl)phenyl)-N2-cyclopropyl-9-(piperidin-4-yl)-9H-purine-2,8-diamine]: the IC50 fell in the range of 200 to 500 nM.

For `FC(F)(F)c1ccc(Nc2nc3cnc(NC4CC4)nc3n2C2CCNCC2)cc1Cl` [Cpd 81, N8-(3-chloro-4-(trifluoromethyl)phenyl)-N2-cyclopropyl-9-(piperidin-4-yl)-9H-purine-2,8-diamine], the concentration for half-maximal inhibition (IC50) lay within 200 to 500 nM. The value for `CC(C)(C)Nc1ncc2nc(Nc3ccc(C(F)(F)F)c(Cl)c3)n(C3CCNCC3)c2n1` [Cpd 82, N2-tert-butyl-N8-(3-chloro-4-(trifluoromethyl)phenyl)-9-(piperidin-4-yl)-9H-purine-2,8-diamine] was 200 to 500 nM; that for `FC(F)(F)c1ccc(Nc2nc3cnc(NC4CCC4)nc3n2C2CCNCC2)cc1Cl` [Cpd 83, N8-(3-chloro-4-(trifluoromethyl)phenyl)-N2-cyclobutyl-9-(piperidin-4-yl)-9H-purine-2,8-diamine] was 100 to 200 nM; that for `CC(C)Nc1ncc2nc(Nc3cc(C(F)(F)F)cc(C(F)(F)F)c3)n(C3CCNCC3)c2n1` [Cpd 84, N8-(3,5-bis(trifluoromethyl)phenyl)-N2-isopropyl-9-(piperidin-4-yl)-9H-purine-2,8-diamine] was under 100 nM. As to `FC(F)(F)c1cc(Nc2nc3cnc(NC4CCCC4)nc3n2C2CCNCC2)cc(C(F)(F)F)c1` [Cpd 85, N8-(3,5-bis(trifluoromethyl)phenyl)-N2-cyclopentyl-9-(piperidin-4-yl)-9H-purine-2,8-diamine], the 50% inhibitory concentration (IC50) was under 100 nM. With `FC(F)(F)c1cc(Nc2nc3cnc(NC4CCC4)nc3n2C2CCNCC2)cc(C(F)(F)F)c1` [Cpd 86, N8-(3,5-bis(trifluoromethyl)phenyl)-N2-cyclobutyl-9-(piperidin-4-yl)-9H-purine-2,8-diamine] the figure was 100 to 200 nM. With `FC(F)(F)c1cc(Nc2nc3cnc(NC4CCCC4)nc3n2C2CCNCC2)ccc1Cl` [Cpd 87, N8-(4-chloro-3-(trifluoromethyl)phenyl)-N2-cyclopentyl-9-(piperidin-4-yl)-9H-purine-2,8-diamine] the figure was 100 to 200 nM. The value for `CC(C)(C)Nc1ncc2nc(Nc3ccc(Cl)c(C(F)(F)F)c3)n(C3CCNCC3)c2n1` [Cpd 88, N2-tert-butyl-N8-(4-chloro-3-(trifluoromethyl)phenyl)-9-(piperidin-4-yl)-9H-purine-2,8-diamine] was 100 to 200 nM; that for `CC1(Nc2ncc3nc(Nc4ccc(Cl)c(C(F)(F)F)c4)n(C4CCNCC4)c3n2)CC1` [Cpd 89, N8-(4-chloro-3-(trifluoromethyl)phenyl)-N2-(1-methylcyclopropyl)-9-(piperidin-4-yl)-9H-purine-2,8-diamine] was 200 to 500 nM; that for `CC1(Nc2ncc3nc(Nc4ccc(Cl)c(C(F)(F)F)c4)n(C4CCNCC4)c3n2)CCCC1` [Cpd 90, N8-(4-chloro-3-(trifluoromethyl)phenyl)-N2-(1-methylcyclopentyl)-9-(piperidin-4-yl)-9H-purine-2,8-diamine] was 100 to 200 nM.

By IC50 is commonly meant the concentration that gives 50% inhibition.
